Assay results: patent US9199963B2, “Heterocyclic compound” (Takeda Pharmaceutical Company Limited, priority 2013, dated 2015)

Assays:
human MCHR1 = target: T1, human MCHR1 (Homo sapiens, UniProt Q99705); experiment: MCH receptor 1 antagonistic activity using Ca2+ mobilization assay; format: cell-based; conditions: test compound 0.1 μM; ligand MCH (4-19) 2 nM; human MCHR1-expressing CHO cells (clone #4); read-out: Inhibition rate % (0.1 μM)
T1 construct: expressed in transfected cells; host or cells: CHO dhfr- cells, clone #4
Procedure: Measurement of MCH Receptor 1 Antagonistic Activity of Test Compound Using Ca^2+ Mobilization Assay
Using an expression vector plasmid introduced with human MCHR1 gene for expression in animal cells, human MCHR1 gene was introduced into CHO cells (CHO dhfr^−) by Lipofectamine LTX (Invitrogen). The cells were cultured in selection MEMα medium [445 mL of MEMα medium without nucleic acid and added with 5 mL of Penicillin-Streptomycin (Invitrogen) and 50 mL of dialyzed fetal bovine serum]. Colony 24 clones grown in the selection medium, which were human MCHR1 gene-expressing CHO cell candidates, were selected. […] An integrated dispensing function fluorometer (CellLux, PerkinElmer) was used for Ca^2+ mobilization assay. […] The medium was removed, and the cells were washed with phosphate buffered saline (PBS). A Ca^2+ indicator dye reagent (DOJINDO LABORATORIES, Ca screening no-wash kit Fluo4) was added at 100 μL/well, and the dye was allowed to penetrate into the cells for 30 min in an incubator at 5% CO2, 37° C. The plate was set on a plate reader. First, a test compound solution diluted with an assay buffer [10 mM HEPES (pH 7.4), 1× assay buffer containing 0.1% BSA (DOJINDO LABORATORIES, attached to Ca screening no-wash kit Fluo4)] or DMSO solution was added at 50 μL/well, and then ligand MCH (4-19) peptide (final concentration 2 nM) diluted with assay buffer or DMSO was added at 50 μL/well, during which changes in intracellular fluorescence were measured at 2 second intervals.

[1] = target: T2, human MCH receptor 1 (MCHR1) (Homo sapiens, UniProt Q99705); experiment: Human MCH receptor 1 (MCHR1) competitive inhibitory activity using binding assay; conditions: test compound 0.1 μM; [125I]-MCH (4-19); human MCHR1-expressing CHO cellular membrane fraction; read-out: Binding inhibition rate % (0.1 μM)
T2 construct: expressed in transfected cells; host or cells: CHO cell clone 57 (described in WO01/82925); membrane fraction
Procedure: Determination of Human MCH Receptor 1 (MCHR1) Competitive Inhibitory Activity of Test Compound Using Binding Assay
1. Preparation of Membrane Fraction
In phosphate buffered saline (pH 7.4) supplemented with 5 mM EDTA (ethylenediaminetetraacetic acid) were respectively suspended human MCHR1-expressing CHO cells (1×10^8 cells) and centrifuged. Homogenate buffer (10 mL, 10 mM NaHCO3, 5 mM EDTA, pH 7.5, 0.5 mM PMSF (phenylmethylsulfonyl fluoride), 20 mg/L leupeptin, 4 mg/L E-64, 1 mg/L pepstatin A) was added to the pellets of the cells and, using Polytron Homogenizer, the mixture was homogenated. The supernatant obtained after centrifugation at 400×g for 10 min was further centrifuged at 100,000×g for 1 hr to give precipitate of the membrane fraction. The precipitate was suspended in 2 mL of assay buffer [20 mM Tris-HCl (pH 7.5), 5 mM EDTA, 0.5 mM PMSF, 20 mg/L leupeptin, 4 mg/L E-64, 1 mg/L pepstatin A]. The membrane fractions were suspended in assay buffer to a protein concentration of 2 mg/mL, and after dispensing, preserved at −80° C. and used upon thawing each time when in use.
The MCHR1 ligand binding inhibitory activity of the test compound was determined as follows.
The mixture was reacted with stirring at room temperature for 1 hr, and the plate was set on FilterMate Harvester (PerkinElmer). […] The glass filter plate was dried, MicroScint 0 (PerkinElmer) was added at 25 μL/well, and the resulting radioactivity was measured by TopCount liquid scintillation counter (PerkinElmer). The binding inhibition rate of the test compound was calculated by the following formula. Binding inhibition(%)=100−(radioactivity upon addition of test compound and hot MCH−radioactivity upon addition of cold MCH and hot MCH solution)/(radioactivity upon addition of DMSO solution and hot MCH−radioactivity upon addition of cold MCH and hot MCH solution)×100

T1 sequence (Q99705 whole entry): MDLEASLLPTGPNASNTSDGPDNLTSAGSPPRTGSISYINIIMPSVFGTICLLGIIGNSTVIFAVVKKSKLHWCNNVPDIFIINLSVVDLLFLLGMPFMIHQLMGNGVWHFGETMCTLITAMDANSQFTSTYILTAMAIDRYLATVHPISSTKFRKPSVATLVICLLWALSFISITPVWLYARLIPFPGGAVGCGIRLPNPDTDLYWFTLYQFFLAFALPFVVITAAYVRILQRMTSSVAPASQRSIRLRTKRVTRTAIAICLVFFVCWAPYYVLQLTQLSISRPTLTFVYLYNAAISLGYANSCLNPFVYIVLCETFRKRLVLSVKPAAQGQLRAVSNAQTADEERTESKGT
T2 sequence (Q99705 whole entry): as above

Row | SMILES | inhibition at 0.1 µM (human MCHR1) [%] | inhibition at 0.1 µM [1] [%]
1 | Cc1c2cc(-n3ccc(OCc4ccc(C(F)(F)F)s4)cc3=O)ccc2nn1C [Example 10, 1-(2,3-dimethyl-2H-indazol-5-yl)-4-{[5-(trifluoromethyl)thiophen-2-yl]methoxy}pyridin-2(1H)-one] | 51 | 39
2 | Cc1c2cc(-n3ccc(OCc4nc(C(F)(F)F)cs4)cc3=O)ccc2nn1C1CC1 [Example 33, 1-(2-cyclopropyl-3-methyl-2H-indazol-5-yl)-4-{[4-(trifluoromethyl)-1,3-thiazol-2-yl]methoxy}pyridin-2(1H)-one] | 96 | 76
3 | CCn1nc2ccc(-n3ccc(OCc4ccc(Cl)cc4)cc3=O)cc2c1C [Example 2, 4-[(4-chlorobenzyl)oxy]-1-(2-ethyl-3-methyl-2H-indazol-5-yl)pyridin-2(1H)-one] | 73 | 43
4 | Cc1c2cc(-n3ccc(OCc4ccc(Cl)cn4)cc3=O)ccc2nn1C1CC1 [Example 18, 4-[(5-chloropyridin-2-yl)methoxy]-1-(2-cyclopropyl-3-methyl-2H-indazol-5-yl)pyridin-2(1H)-one] | 63 | 45
5 | Cc1c2cc(-n3ccc(OCc4nc(Br)cs4)cc3=O)ccc2nn1C [Example 30, 4-[(4-bromo-1,3-thiazol-2-yl)methoxy]-1-(2,3-dimethyl-2H-indazol-5-yl)pyridin-2(1H)-one] | 89 | 34
6 | Cc1c2cc(-n3ccc(OCc4ccc(F)cc4)cc3=O)ccc2nn1C [Example 42, 1-(2,3-dimethyl-2H-indazol-5-yl)-4-[(4-fluorobenzyl)oxy]pyridin-2(1H)-one] | 65 | 46
7 | Cc1c2cc(-n3ccc(OCc4ccc(C(F)(F)F)s4)cc3=O)ccc2nn1C1CC1 [Example 45, 1-(2-cyclopropyl-3-methyl-2H-indazol-5-yl)-4-{[5-(trifluoromethyl)thiophen-2-yl]methoxy}pyridin-2(1H)-one] | 43 | 49
8 | Cc1c2cc(-n3ccc(OCc4nc(C(F)(F)F)cs4)cc3=O)ccc2nn1C [Example 38, 1-(2,3-dimethyl-2H-indazol-5-yl)-4-{[4-(trifluoromethyl)-1,3-thiazol-2-yl]methoxy}pyridin-2(1H)-one] | 78 | 45
9 | Cc1c2cc(-n3ccc(OCc4ccc(Br)s4)cc3=O)ccc2nn1C [Example 27, 4-[(5-bromothiophen-2-yl)methoxy]-1-(2,3-dimethyl-2H-indazol-5-yl)pyridin-2(1H)-one] | 92 | 60
10 | Cc1c2cc(-n3ccc(OCc4ccc(Br)cn4)cc3=O)ccc2nn1C [Example 23, 4-[(5-bromopyridin-2-yl)methoxy]-1-(2,3-dimethyl-2H-indazol-5-yl)pyridin-2(1H)-one] | 77 | 57
11 | Cc1c2c(F)c(-n3ccc(OCc4ccc(Cl)cc4)cc3=O)ccc2nn1C [Example 32, 4-[(4-chlorobenzyl)oxy]-1-(4-fluoro-2,3-dimethyl-2H-indazol-5-yl)pyridin-2(1H)-one] |  | 54
12 | Cc1c2cc(-n3ccc(OCc4ccccc4)cc3=O)ccc2nn1C1CC1 [Example 7, 4-(benzyloxy)-1-(2-cyclopropyl-3-methyl-2H-indazol-5-yl)pyridin-2(1H)-one] | 66 | 44
13 | CCn1nc2ccc(-n3ccc(OCc4nc(C(F)(F)F)cs4)cc3=O)cc2c1C [Example 36, 1-(2-ethyl-3-methyl-2H-indazol-5-yl)-4-{[4-(trifluoromethyl)-1,3-thiazol-2-yl]methoxy}pyridin-2(1H)-one] | 83 | 37
14 | Cc1c2cc(-n3ccc(OCc4ccc(Br)cn4)cc3=O)ccc2nn1C1CC1 [Example 28, 4-[(5-bromopyridin-2-yl)methoxy]-1-(2-cyclopropyl-3-methyl-2H-indazol-5-yl)pyridin-2(1H)-one] | 93 | 68
15 | Cc1c2cc(-n3ccc(OCc4csc(C(F)(F)F)n4)cc3=O)ccc2nn1C [Example 39, 1-(2,3-dimethyl-2H-indazol-5-yl)-4-{[2-(trifluoromethyl)-1,3-thiazol-4-yl]methoxy}pyridin-2(1H)-one] | 71 | 33
16 | Cc1c2cc(-n3ccc(OCc4cccc(Cl)c4)cc3=O)ccc2nn1C [Example 12, 4-[(3-chlorobenzyl)oxy]-1-(2,3-dimethyl-2H-indazol-5-yl)pyridin-2(1H)-one] | 38 | 42
17 | Cc1c2cc(-n3ccc(OCc4ccc(Cl)s4)cc3=O)ccc2nn1C1CC1 [Example 8, 4-[(5-chlorothiophen-2-yl)methoxy]-1-(2-cyclopropyl-3-methyl-2H-indazol-5-yl)pyridin-2(1H)-one] | 55 | 68
18 | Cc1c2cc(-n3ccc(OCc4ccccc4)cc3=O)ccc2nn1C [Example 9, 4-(benzyloxy)-1-(2,3-dimethyl-2H-indazol-5-yl)pyridin-2(1H)-one] |  | 36
19 | Cc1c2cc(-n3ccc(OCc4ccc(Cl)cc4)cc3=O)ccc2nn1C1CC1 [Example 5, 4-[(4-chlorobenzyl)oxy]-1-(2-cyclopropyl-3-methyl-2H-indazol-5-yl)pyridin-2(1H)-one] | 86 | 78
20 | Cc1c2cc(-n3ccc(OCc4cc(C(F)(F)F)cs4)cc3=O)ccc2nn1C [Example 41, 1-(2,3-dimethyl-2H-indazol-5-yl)-4-{[4-(trifluoromethyl)thiophen-2-yl]methoxy}pyridin-2(1H)-one] | 70 | 55
21 | Cc1c2cc(-n3ccc(OCc4cc(C(F)(F)F)cs4)cc3=O)ccc2nn1C1CC1 [Example 43, 1-(2-cyclopropyl-3-methyl-2H-indazol-5-yl)-4-{[4-(trifluoromethyl)thiophen-2-yl]methoxy}pyridin-2(1H)-one] | 72 | 71
22 | Cc1c2cc(-n3ccc(OCc4cc5ccccc5o4)cc3=O)ccc2nn1C [Example 16, 4-(1-benzofuran-2-ylmethoxy)-1-(2,3-dimethyl-2H-indazol-5-yl)pyridin-2(1H)-one] | 57 | 47
23 | CCCn1nc2ccc(-n3ccc(OCc4ccc(Cl)cc4)cc3=O)cc2c1C [Example 3, 4-[(4-chlorobenzyl)oxy]-1-(3-methyl-2-propyl-2H-indazol-5-yl)pyridin-2(1H)-one] |  | 37
